Reference: patent US11103519B2, “Quinone-methide precursors with bodipy chromophore, method of preparation, biological activity and application in fluorescent labelling” (Rudjer Boskovic Institute, priority 2016, dated 2021)
Read-outs that look alike come from different tables or passages of the source.

How the values were obtained:
H 460 (lung carcinoma) = test: Antiproliferative MTT assay, H 460; assay type: cell-based, human; conditions: 72 h incubation, read-out: IC50, the concentration that causes 50% growth inhibition
Source text: (§1) The absorbance is directly proportional to the cell viability.

MCF-7 (breast carcinoma) = test: Antiproliferative MTT assay, MCF-7; assay type: cell-based, human; conditions: 72 h incubation, read-out: IC50, the concentration that causes 50% growth inhibition
Source text: as §1

[1] = tested on: HCT 116 (colon carcinoma); conditions: read-out: IC50, the concentration that causes 50% growth inhibition, HCT116, 72 h incubation, MTT
Protocol: The described assay was used to test the effects of test compounds on the proliferation of various human tumor cell lines, whereby cytostatic and cytotoxic effects on cells can be differentiated. The experiments were carried out on human cell lines, which were derived from 3 tumor types: MCF-7 (breast carcinoma), HCT 116 (colon carcinoma), H 460 (lung carcinoma).
Cell lines were cultured as monolayers and maintained in Dulbecco's modified Eagle medium (DMEM), supplemented with 10% fetal bovine serum (FBS), 2 mM L-glutamine, 100 U/ml penicillin and 100 μg/ml streptomycin in a humidified atmosphere with 5% CO2 at 37° C.
The cell lines were inoculated onto a series of standard 96-well microtiter plates on day 0, at 1×10^4 to 3×10^4 cells/ml, depending on the doubling times of the specific cell line. Test compounds were added next day to the cell lines in five consecutive 10-fold dilutions (10^−8 to 10^−4 M) and incubated for a further 72 hours. Working dilutions were freshly prepared on the day of testing. The solvent (DMSO) was also tested for eventual inhibitory activity by adjusting its concentration to be the same as in working concentrations.
For each cell line one of the plates was left in the dark, while the other was irradiated in a Luzchem reactor (6 lamps 350 nm, 5 min; or 6 lamps 420 nm, 15 min, visible light, 15 min) four hours after the addition of the test compounds and subsequently 24 h and 48 h after the first irradiation, as described above. After 72 hours of incubation the cell growth rate was evaluated by performing the MTT assay (Mossman, Methods Immunol, 1983, 65, 55-63), which detects dehydrogenase activity in viable cells. The MTT Cell Proliferation Assay is a colorimetric assay system, which measures the reduction of a tetrazolium component (MTT) into an insoluble formazan produced by mitochondria of viable cells. For this purpose the substance treated medium was discarded and MTT was added to each well in concentration of 20 μg/40 μl. After four hours of incubation the precipitates were dissolved in 160 μl of dimethylsulphoxide (DMSO). The absorbance (OD, optical density) was measured on a microplate reader at 570 nm. The absorbance is directly proportional to the cell viability. The percentage of growth (PG) of the cell lines was calculated according to one of the following two equations (according to the National Cancer Institute protocols, www.dtp.nci.nih.gov):
If (mean ODtest-mean ODtzero)≥0 then • PG=100×(mean ODtest-mean ODtzero)/(mean ODetrl-meanODtzero).
If (mean ODtest-mean ODtzero)<0 then: • PG=100×(mean ODtest-mean ODtzero)/ODtzero. where:
Mean ODtzero=the average of optical density measurements before exposure of cells to the test compound.
Mean ODtest=the average of optical density measurements after the desired period of time.
Mean ODetrl=the average of optical density measurements after the desired period of time with no exposure of cells to the test compound.
Each test point was performed in quadruplicate in three individual experiments. The results were expressed as IC50, a concentration necessary for 50% of proliferation inhibition. Each result is a mean value from three separate experiments. The IC50 measures the growth inhibitory power of the test agent and represents the concentration that causes 50% growth inhibition. […] Therefore, a “real” value for any of the response parameters is obtained only if at least one of the tested drug concentrations falls above, and likewise at least one falls below the respective reference value. If however, for a given cell line or test agent all of the tested concentrations produce PGs exceeding the respective reference level of effect (e.g. PG value of 50%), then the highest tested concentration is assigned as the default value. In the screening data report the default value is preceded by a “>” sign.

Question: How did the IC50 (H 460 (lung carcinoma); Not irrad.) turn out when “4,4-difluoro-1,3,5,7-tetramethyl-8-[3-(N,N-dimethylammoniummethyl)-4-hydroxyphenyl]-4-bora-3a,4a-diaza-s-indacene hydrochloride [Example 4]” was run?
Answer: 13 ± 0.2 µM

Question: And the IC50 (H 460 (lung carcinoma); irradiated 350 nm 3 × 5 min)?
Answer: 5 ± 3 µM

Question: And the IC50 (H 460 (lung carcinoma); irradiated 420 nm 3 × 15 min)?
Answer: 1 ± 0.1 µM

Question: And the IC50 (H 460 (lung carcinoma); irradiated VIS 3 × 15 min)?
Answer: 0.9 ± 0.2 µM

Question: And the IC50 (MCF-7 (breast carcinoma); Not irrad.)?
Answer: 13 ± 0.1 µM

Question: What about the IC50 (MCF-7 (breast carcinoma); irradiated 350 nm 3 × 5 min) of the same substance?
Answer: 10 ± 0.6 µM

Question: And the IC50 (MCF-7 (breast carcinoma); irradiated 420 nm 3 × 15 min)?
Answer: 2 ± 0.2 µM

Question: What about the IC50 (MCF-7 (breast carcinoma); irradiated VIS 3 × 15 min) of the same substance?
Answer: 1.6 ± 0.01 µM

Question: And the IC50 ([1]; Not irrad.)?
Answer: 16 ± 1 µM

Question: And the IC50 ([1]; irradiated 350 nm 3 × 5 min)?
Answer: 11 ± 2 µM

Question: What about the IC50 ([1]; irradiated 420 nm 3 × 15 min) of the same substance?
Answer: 2 ± 0.4 µM

Question: What about the IC50 ([1]; irradiated VIS 3 × 15 min) of the same substance?
Answer: 2 ± 0.1 µM

Question: Which IC50 (H 460 (lung carcinoma); Not irrad.) does the source give for “4,4-difluoro-1,5,7-trimethyl-343-(N,N-dimethylammoniummethyl)-4-hydroxyphenyl)-8-phenyl-4-bora-3a,4a-diaza-s-indacene hydrochloride [Example 7]” here?
Answer: 20 ± 5 µM

Question: What about the IC50 (H 460 (lung carcinoma); irradiated VIS 3 × 15 min) of the same substance?
Answer: 2 ± 0.7 µM

Question: And the IC50 (MCF-7 (breast carcinoma); Not irrad.)?
Answer: 22 ± 12 µM

Question: What about the IC50 (MCF-7 (breast carcinoma); irradiated VIS 3 × 15 min) of the same substance?
Answer: 2 ± 0.7 µM

Question: What about the IC50 ([1]; Not irrad.) of the same substance?
Answer: 27 µM

Question: What about the IC50 ([1]; irradiated VIS 3 × 15 min) of the same substance?
Answer: 2 µM

Question: For “4,4-difluoro-8-[3-(N,N-dimethylammoniummethyl)-4-hydroxyphenyl]-4-bora-3a,4a-diaza-s-indacene hydrochloride [Example 2]”, which IC50 (H 460 (lung carcinoma); Not irrad.) is on record?
Answer: > 100 µM

Question: And the IC50 (H 460 (lung carcinoma); irradiated 350 nm 3 × 5 min)?
Answer: > 100 µM

Question: What about the IC50 (H 460 (lung carcinoma); irradiated 420 nm 3 × 15 min) of the same substance?
Answer: 30 ± 18 µM

Question: What about the IC50 (H 460 (lung carcinoma); irradiated VIS 3 × 15 min) of the same substance?
Answer: 43 ± 6 µM

Question: What about the IC50 (MCF-7 (breast carcinoma); Not irrad.) of the same substance?
Answer: ≥ 100 µM

Question: What about the IC50 (MCF-7 (breast carcinoma); irradiated 350 nm 3 × 5 min) of the same substance?
Answer: ≥ 100 µM

Question: And the IC50 (MCF-7 (breast carcinoma); irradiated 420 nm 3 × 15 min)?
Answer: 25 ± 6 µM

Question: And the IC50 (MCF-7 (breast carcinoma); irradiated VIS 3 × 15 min)?
Answer: 32 ± 25 µM

Question: And the IC50 ([1]; Not irrad.)?
Answer: > 100 µM

Question: And the IC50 ([1]; irradiated 350 nm 3 × 5 min)?
Answer: > 100 µM

Question: And the IC50 ([1]; irradiated 420 nm 3 × 15 min)?
Answer: 37 ± 7 µM

Question: And the IC50 ([1]; irradiated VIS 3 × 15 min)?
Answer: 89 ± 6 µM
